In patent publication US12371428B2 (Exelixis, Inc., priority 2019, dated 2025):
pIC50: −log10 of the molar value.

Experiments:
[1] = target: Human MER (residues 528-999) (Homo sapiens (Human), UniProt Q12866); assay: Human Mer kinase assay, HTRF KinEase (Example C-2); type: biochemical; conditions: protocol of Example C-2 (other compounds)
Procedure, shortened: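 HTRF KinEase TK assay with MER 528-999 (1 ng/well) in enzymatic buffer plus 5 mM MgCl2 and 1 mM DTT, biotinylated peptide substrate and ATP at Km (40 μM), 3% DMSO final, 60 min at room temperature. Stopped with EDTA detection mix (SA-XL665, TK antibody-Eu3+), read at 665/620 nm after 60 min; IC50 from 10-point 4-parameter fit, normalized to DMSO and 1 μM reference.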

[2] = target: Human KDR (residues 790-1356) (Homo sapiens (Human), UniProt P35968); assay: Human KDR kinase assay, HTRF KinEase (Example B-2); type: biochemical; conditions: protocol of Example B-2 (other compounds)
Chain of Human KDR (residues 790-1356) (P35968 790-1356): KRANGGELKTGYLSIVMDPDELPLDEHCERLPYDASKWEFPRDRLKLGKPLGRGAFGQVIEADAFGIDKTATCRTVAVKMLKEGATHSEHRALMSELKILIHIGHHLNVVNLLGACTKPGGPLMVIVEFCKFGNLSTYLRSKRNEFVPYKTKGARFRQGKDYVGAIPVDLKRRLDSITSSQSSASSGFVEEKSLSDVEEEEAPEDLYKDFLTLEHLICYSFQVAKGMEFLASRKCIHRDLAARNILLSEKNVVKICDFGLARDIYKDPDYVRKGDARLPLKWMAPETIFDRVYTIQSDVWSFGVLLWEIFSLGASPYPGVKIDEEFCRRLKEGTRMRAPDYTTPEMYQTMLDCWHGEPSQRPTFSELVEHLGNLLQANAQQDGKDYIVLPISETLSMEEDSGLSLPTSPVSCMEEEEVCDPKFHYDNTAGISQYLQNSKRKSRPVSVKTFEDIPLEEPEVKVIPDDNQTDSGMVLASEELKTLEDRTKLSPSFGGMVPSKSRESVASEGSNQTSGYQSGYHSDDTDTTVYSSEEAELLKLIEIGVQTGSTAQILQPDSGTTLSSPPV
Procedure, shortened: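 Ten compound concentrations (3% DMSO final) were pre-plated, then KDR (790-1356) with biotinylated peptide in Mg/Mn/DTT buffer was added; ATP at Km (4.0 μM) started a 40 min room-temperature reaction. Detection used Eu-TK antibody and SA-XL665 in EDTA buffer; activity normalized to DMSO and reference inhibitor, IC50 by logistic fit.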

[3] = target: KDR (phospho-KDR, VEGF165-stimulated HUVEC cells) (Homo sapiens (Human), UniProt P35968); assay: KDR autophosphorylation ELISA in HUVEC cells (Example G); type: cell-based; conditions: cellular activity; KDR autophosphorylation ELISA in HUVEC cells
Chain of KDR (phospho-KDR, VEGF165-stimulated HUVEC cells) (P35968 20-1356): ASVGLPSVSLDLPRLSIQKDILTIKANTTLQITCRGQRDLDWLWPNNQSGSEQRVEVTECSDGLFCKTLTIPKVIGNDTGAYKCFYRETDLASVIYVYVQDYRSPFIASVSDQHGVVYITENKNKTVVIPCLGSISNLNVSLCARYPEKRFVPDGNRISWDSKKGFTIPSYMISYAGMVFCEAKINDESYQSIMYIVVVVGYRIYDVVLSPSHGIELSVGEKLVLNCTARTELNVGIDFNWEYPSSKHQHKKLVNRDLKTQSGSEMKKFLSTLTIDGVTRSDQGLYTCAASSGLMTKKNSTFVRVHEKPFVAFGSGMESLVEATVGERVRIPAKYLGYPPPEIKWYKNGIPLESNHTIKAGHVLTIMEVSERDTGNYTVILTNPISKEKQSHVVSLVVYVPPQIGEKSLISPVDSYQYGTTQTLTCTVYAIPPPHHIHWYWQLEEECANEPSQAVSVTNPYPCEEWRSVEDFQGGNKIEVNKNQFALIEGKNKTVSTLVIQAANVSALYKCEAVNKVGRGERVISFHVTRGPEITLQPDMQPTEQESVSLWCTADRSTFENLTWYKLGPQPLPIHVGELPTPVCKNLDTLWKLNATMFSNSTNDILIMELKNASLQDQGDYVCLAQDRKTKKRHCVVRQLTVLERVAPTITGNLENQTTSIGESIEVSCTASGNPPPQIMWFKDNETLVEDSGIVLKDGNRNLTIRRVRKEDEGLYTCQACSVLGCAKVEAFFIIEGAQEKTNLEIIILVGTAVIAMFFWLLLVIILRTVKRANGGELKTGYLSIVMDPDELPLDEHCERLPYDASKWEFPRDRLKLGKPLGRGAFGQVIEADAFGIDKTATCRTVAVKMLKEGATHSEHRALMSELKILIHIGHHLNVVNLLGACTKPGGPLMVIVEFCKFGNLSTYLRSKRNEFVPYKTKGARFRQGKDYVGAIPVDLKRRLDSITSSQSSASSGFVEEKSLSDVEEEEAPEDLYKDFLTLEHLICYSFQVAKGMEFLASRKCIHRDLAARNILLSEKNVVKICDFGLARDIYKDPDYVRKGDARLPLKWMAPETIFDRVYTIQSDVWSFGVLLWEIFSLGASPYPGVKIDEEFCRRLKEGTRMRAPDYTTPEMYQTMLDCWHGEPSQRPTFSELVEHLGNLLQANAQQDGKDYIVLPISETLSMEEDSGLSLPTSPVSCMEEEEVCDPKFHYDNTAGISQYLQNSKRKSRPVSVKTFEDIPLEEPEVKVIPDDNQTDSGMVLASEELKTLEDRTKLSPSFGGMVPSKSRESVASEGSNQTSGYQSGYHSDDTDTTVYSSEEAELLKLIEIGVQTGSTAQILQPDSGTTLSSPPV
Procedure, shortened: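 Read-out: phospho-KDR in cell lysates by DuoSet IC ELISA, normalised between VEGF-stimulated DMSO wells (100%) and unstimulated wells (0%). Human endothelial cells were starved overnight in serum-free medium, exposed to compound for 1 h, and then pulsed with 100 ng/mL VEGF165 for 5 min.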

Chain of Human MER (residues 528-999) (Q12866 528-999): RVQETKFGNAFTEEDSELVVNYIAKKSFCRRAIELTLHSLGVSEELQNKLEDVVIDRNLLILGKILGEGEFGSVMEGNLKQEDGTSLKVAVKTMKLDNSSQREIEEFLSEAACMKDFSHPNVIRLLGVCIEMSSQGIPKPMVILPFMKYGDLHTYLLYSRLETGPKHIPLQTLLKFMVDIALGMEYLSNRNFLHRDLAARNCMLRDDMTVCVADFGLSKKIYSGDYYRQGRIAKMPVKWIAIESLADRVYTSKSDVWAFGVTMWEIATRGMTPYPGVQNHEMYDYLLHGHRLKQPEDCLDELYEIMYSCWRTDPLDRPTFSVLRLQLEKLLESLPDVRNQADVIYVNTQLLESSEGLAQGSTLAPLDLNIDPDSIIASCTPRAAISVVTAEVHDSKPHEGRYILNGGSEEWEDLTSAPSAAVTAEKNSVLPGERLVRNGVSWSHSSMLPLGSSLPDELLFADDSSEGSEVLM

pIC50 [1] | pIC50 [2] | pIC50 [3] | SMILES
> 7.00 | > 7.00 | > 7.00 | COc1cnc2c(Oc3ccc(NC(=O)c4n[nH]c(C)c(-c5ccc(F)cc5)c4=O)cc3F)ccnc2c1 [Compound 246, N-[3-Fluoro-4-[(7-methoxy-1,5-naphthyridin-4-yl)oxy]phenyl]-5-(4-fluorophenyl)-6-methyl-4-oxo-1H-pyridazine-3-carboxamide]
> 7.00 | > 7.00 | > 7.00 | COc1cc2nccc(Oc3ccc(NC(=O)c4n[nH]c(C)c(-c5ccc(F)cc5C)c4=O)cc3)c2nc1OC [Compound 247, N-[4-[(6,7-Dimethoxy-1,5-naphthyridin-4-yl)oxy]phenyl]-5-(4-fluoro-2-methylphenyl)-6-methyl-4-oxo-1H-pyridazine-3-carboxamide]
> 7.00 | < 6.52 | < 6.52 | COc1cnc2c(Oc3ccc(NC(=O)c4n[nH]c(C)c(-c5ccc(F)cc5C)c4=O)cc3)ccnc2c1 [Compound 248, 5-(4-Fluoro-2-methylphenyl)-N-[4-[(7-methoxy-1,5-naphthyridin-4-yl)oxy]phenyl]-6-methyl-4-oxo-1H-pyridazine-3-carboxamide]
> 7.00 | < 6.52 | 6.52 to 7.00 | COc1cnc2c(Oc3ccc(NC(=O)c4n[nH]c(C)c(-c5ccc(F)cc5C)c4=O)cc3F)ccnc2c1 [Compound 249A, N-[3-Fluoro-4-[(7-methoxy-1,5-naphthyridin-4-yl)oxy]phenyl]-5-(4-fluoro-2-methylphenyl)-6-methyl-4-oxo-1H-pyridazine-3-carboxamide]
> 7.00 | < 6.52 | < 6.52 | COc1cnc2c(Oc3ccc(NC(=O)c4nn(C)c(C)c(-c5ccc(F)cc5)c4=O)cc3F)ccnc2c1 [Compound 250, N-[3-Fluoro-4-[(7-methoxy-1,5-naphthyridin-4-yl)oxy]phenyl]-5-(4-fluorophenyl)-1,6-dimethyl-4-oxopyridazine-3-carboxamide]
> 7.00 | 6.52 to 7.00 | > 7.00 | COCCOc1nc2c(Oc3ccc(NC(=O)c4n[nH]c(C)c(-c5ccc(F)cc5C)c4=O)cc3F)ccnc2cc1OC [Compound 252, N-[3-Fluoro-4-[[7-methoxy-6-(2-methoxyethoxy)-1,5-naphthyridin-4-yl]oxy]phenyl]-5-(4-fluoro-2-methylphenyl)-6-methyl-4-oxo-1H-pyridazine-3-carboxamide]

Continued, compound first:

SMILES | pIC50 [1] | pIC50 [2] | pIC50 [3]
COc1cnc2c(Oc3ccc(NC(=O)c4nn(C)c(C)c(-c5ccc(F)cc5)c4=O)cc3)ccnc2c1 [Compound 251, 5-(4-Fluorophenyl)-N-[4-[(7-methoxy-1,5-naphthyridin-4-yl)oxy]phenyl]-1,6-dimethyl-4-oxopyridazine-3-carboxamide] | > 7.00 | < 6.52 | < 6.52
COc1cnc2c(Oc3ccc(NC(=O)c4c(C)ncn(-c5ccc(F)cc5)c4=O)cc3F)ccnc2c1 [Compound 256, N-[3-Fluoro-4-[(7-methoxy-1,5-naphthyridin-4-yl)oxy]phenyl]-1-(4-fluorophenyl)-4-methyl-6-oxopyrimidine-5-carboxamide] | > 7.00 | 6.52 to 7.00 | < 6.52
COc1cnc2c(Oc3ccc(NC(=O)c4c(C)nc(C)n(-c5ccc(F)cc5)c4=O)cc3F)ccnc2c1 [Compound 257, N-[3-Fluoro-4-[(7-methoxy-1,5-naphthyridin-4-yl)oxy]phenyl]-1-(4-fluorophenyl)-2,4-dimethyl-6-oxopyrimidine-5-carboxamide] | > 7.00 | > 7.00 | > 7.00
COc1cnc2c(Oc3ccc(NC(=O)c4c(C)nc(C)n(-c5ccc(F)cc5)c4=O)cc3)ccnc2c1 [Compound 258, 1-(4-Fluorophenyl)-N-[4-[(7-methoxy-1,5-naphthyridin-4-yl)oxy]phenyl]-2,4-dimethyl-6-oxopyrimidine-5-carboxamide] | > 7.00 | > 7.00 | 6.52 to 7.00
COc1cc2nccc(Oc3ccc(NC(=O)c4cn(CC(F)(F)F)c(C)c(-c5ccc(F)cc5)c4=O)cc3F)c2cc1OC [Compound 259, N-[4-(6,7-Dimethoxyquinolin-4-yl)oxy-3-fluorophenyl]-5-(4-fluorophenyl)-6-methyl-4-oxo-1-(2,2,2-trifluoroethyl)pyridine-3-carboxamide] | > 7.00 | 6.52 to 7.00 | 6.52 to 7.00
COc1cnc2c(Oc3ccc(NC(=O)c4cn(CC(F)(F)F)c(C)c(-c5ccc(F)cc5)c4=O)cc3F)ccnc2c1 [Compound 261, N-[3-Fluoro-4-[(7-methoxy-1,5-naphthyridin-4-yl)oxy]phenyl]-5-(4-fluorophenyl)-6-methyl-4-oxo-1-(2,2,2-trifluoroethyl)pyridine-3-carboxamide] | > 7.00 | < 6.52 | < 6.52
COc1cc2nccc(Oc3ccc(NC(=O)c4ncc(C)n(-c5ccc(F)cc5)c4=O)cc3)c2nc1OC [Compound 262, N-[4-[(6,7-Dimethoxy-1,5-naphthyridin-4-yl)oxy]phenyl]-4-(4-fluorophenyl)-5-methyl-3-oxopyrazine-2-carboxamide] | > 7.00 | > 7.00 | > 7.00
